# Reference: PubChem BioAssay (NCI)
#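 In this assay, cells in 96-well plates receive the compound at five concentrations for 48 hours. Endpoints are linearly interpolated between the surrounding concentrations. GI50 is the concentration that inhibits growth by half. Definition used: TGI = concentration required for complete inhibition of growth.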
# Experiments:
# Assay in all cases: DTP human tumour cell line panel, 48 h
# [1] = system: HOP-92 NSCLC
# [2] = system: SK-MEL-28 melanoma
# [3] = system: TK-10 renal
# [4] = system: SK-OV-3 ovarian
# [5] = system: IGROV1 ovarian
# [6] = system: NCI-H23 lung
# [7] = system: SK-MEL-5 melanoma
# [8] = system: SNB-19 CNS
# [9] = system: HCT-15 colon
# [10] = system: HCC-2998 colon
Structure (SMILES),TGI [1],TGI [2],TGI [3],TGI [4],TGI [5],TGI [6],TGI [7],TGI [8],TGI [9],TGI [10],GI50 [1],GI50 [2],GI50 [3],GI50 [4],GI50 [6],GI50 [10],GI50 [7],GI50 [8],GI50 [9],GI50 [5]
CCOC(=O)c1c(-c2cccc(Cl)c2)c(C(=O)OC)c(C)c2sc(C=O)nc12,34.2 µM,34.5 µM,50 µM,92.2 µM,32.9 µM,> 100 µM,30.4 µM,> 100 µM,36.9 µM,–,–,–,–,–,–,–,–,–,–,–
Cc1ccc(OCC2=NC3S/C(=C/c4ccc([N+](=O)[O-])o4)C(=O)N3N2)cc1 (centres undefined),8.8 µM,30.5 µM,30.1 µM,29.9 µM,22.5 µM,28.8 µM,21.3 µM,32.2 µM,7.04 µM,–,–,–,–,–,–,–,–,–,–,–
COC(=O)C1=C(OC(=O)/C=C/c2ccc(Cl)cc2)C(C(=O)OC)[C@]2(O)[C@@H](C(=O)OC)[C@H]1C[C@@H](c1ccccc1)[C@@H]2C(=O)OC (some centres undefined),7.73 µM,> 100 µM,> 100 µM,> 100 µM,> 25.9 µM,> 25.1 µM,12.7 µM,> 95.9 µM,> 47.1 µM,46.9 µM,–,–,–,–,–,–,–,–,–,–
O/C(=C\c1nc2ccccc2nc1/C=C(\O)c1ccc(F)cc1)c1ccc(F)cc1,> 100 µM,> 100 µM,> 100 µM,–,> 100 µM,> 100 µM,> 100 µM,> 100 µM,> 100 µM,> 100 µM,–,–,–,–,–,–,–,–,–,–
N#Cc1ccccc1C#C/C=C\C#Cc1ccccc1N,> 78.2 µM,> 74 µM,> 49.3 µM,> 100 µM,–,29.2 µM,19 µM,> 100 µM,–,4.11 µM,2.45 µM,9.78 µM,5.02 µM,3.22 µM,2.88 µM,0.808 µM,3.34 µM,7.17 µM,3.85 µM,–
CC(=O)Nc1ccc(C(=O)NN2C(=O)C(Cl)C2c2cccc([N+](=O)[O-])c2)cc1 (centres undefined),> 100 µM,> 100 µM,> 100 µM,> 100 µM,> 100 µM,> 100 µM,> 100 µM,> 100 µM,–,> 100 µM,–,–,–,–,–,–,–,–,–,–
CCN1CCN(c2nc3ccccc3nc2C(=O)c2ccc(OC)c(OC)c2)CC1,70.2 µM,27.3 µM,87.5 µM,24.5 µM,32.9 µM,98.4 µM,–,88.2 µM,28.8 µM,9.71 µM,–,–,–,–,–,–,–,–,–,–
Cc1cc2ccc(OC(=O)c3ccc(N=C(N)N)cc3)cc2oc1=O,> 100 µM,58.6 µM,49.8 µM,46.4 µM,> 100 µM,46.5 µM,> 100 µM,54.8 µM,> 100 µM,–,–,–,–,–,–,–,–,–,–,–
CS(C)(=O)=Nn1c(=O)n2n(c1=O)C1c3ccccc3C2c2ccccc21,> 100 µM,> 100 µM,> 100 µM,> 100 µM,> 100 µM,> 100 µM,> 100 µM,> 100 µM,> 100 µM,–,–,–,–,–,–,–,–,–,–,–
Cn1c2[n+](c3nc(N)[nH]c(=O)c31)C1OC(C2)C(O)C1O (centres undefined),> 100 µM,> 100 µM,> 100 µM,> 100 µM,> 100 µM,> 100 µM,> 100 µM,> 100 µM,–,> 100 µM,–,–,–,–,–,–,–,–,–,–
COc1cccc(/C=N/[N-]C(N)=O)c1[O-].[Ni+2].[OH3+],0.934 µM,1.72 µM,2.74 µM,1.69 µM,0.811 µM,0.735 µM,1.65 µM,1.99 µM,1.17 µM,1.02 µM,–,–,–,–,–,–,–,–,–,–
CC1=CC(O)C(C(O)(C(F)(F)F)C(F)(F)F)C(C)(C)C1 (centres undefined),> 10 µM,> 10 µM,> 10 µM,> 10 µM,0.986 µM,> 10 µM,0.163 µM,> 10 µM,> 10 µM,> 10 µM,–,–,–,–,–,–,–,–,–,–
Nc1nnc(CCC(=O)Nc2cc(Cl)ccc2Cl)n1N,> 100 µM,> 100 µM,> 100 µM,> 100 µM,> 100 µM,> 100 µM,> 100 µM,> 100 µM,> 100 µM,> 100 µM,–,–,–,–,–,–,–,–,–,–
O=S(=O)(O)c1ccc2c(N=Nc3ccc(N=Nc4ccccc4)cc3)c(O)c(S(=O)(=O)O)cc2c1,> 100 µM,> 100 µM,> 100 µM,> 100 µM,> 100 µM,> 100 µM,> 100 µM,> 100 µM,> 100 µM,> 100 µM,–,–,–,–,–,–,–,–,–,–
Cc1cc(C)c2c(=O)n(CC(O)CN3CCN(CCOCCO)CC3)sc2n1 (centres undefined),40.6 µM,35.7 µM,31.3 µM,60.7 µM,> 100 µM,30.3 µM,34.5 µM,> 100 µM,> 100 µM,–,–,–,–,–,–,–,–,–,–,–
OCCCSCCO,> 100 µM,> 100 µM,> 100 µM,> 100 µM,> 100 µM,> 100 µM,> 100 µM,> 100 µM,> 100 µM,> 100 µM,–,–,–,–,–,–,–,–,–,–

Structure (SMILES),TGI [1],TGI [2],TGI [3],TGI [4],TGI [5],TGI [6],TGI [7],TGI [8],TGI [9],TGI [10],GI50 [1],GI50 [2],GI50 [3],GI50 [4],GI50 [6],GI50 [10],GI50 [7],GI50 [8],GI50 [9],GI50 [5]
Cc1n[n+]([O-])c(C)cc1[N+](=O)[O-],34.3 µM,31.9 µM,24.5 µM,> 100 µM,49 µM,29.9 µM,29.8 µM,> 100 µM,29.3 µM,25 µM,–,–,–,–,–,–,–,–,–,–
CC1(C(=O)O)C[C@](C)(C(=O)OCc2ccccc2)C[C@](C)(C(=O)OCc2ccccc2)C1 (some centres undefined),54 µM,> 100 µM,> 100 µM,> 100 µM,52.7 µM,56.6 µM,> 100 µM,> 100 µM,85.9 µM,79.8 µM,–,–,–,–,–,–,–,–,–,–
CC1C(=O)c2cc3c(cc2CCN(C)Cc2c1ccc1c2OCO1)OCO3 (centres undefined),> 75 µg/mL,> 75 µg/mL,> 75 µg/mL,> 75 µg/mL,> 75 µg/mL,> 75 µg/mL,> 75 µg/mL,> 75 µg/mL,> 75 µg/mL,33.5 µg/mL,> 75 µg/mL,30.9 µg/mL,> 75 µg/mL,> 75 µg/mL,> 75 µg/mL,14.1 µg/mL,37.1 µg/mL,> 75 µg/mL,> 75 µg/mL,> 75 µg/mL
Clc1ccc(Nc2nc(Nc3ccccc3)nc(Nc3ccc(-c4cc(-c5ccc(Cl)cc5)on4)cc3)n2)cc1,20 µM,> 100 µM,> 100 µM,> 100 µM,> 100 µM,60.4 µM,> 100 µM,> 100 µM,84.8 µM,> 100 µM,1.93 µM,40.3 µM,19.2 µM,29 µM,18.4 µM,29.1 µM,24 µM,45.6 µM,14.1 µM,12.7 µM
O=C(Cc1csc2nc(-c3ccc(Cl)cc3)cn12)N/N=C/c1ccccc1O,32.4 µM,> 100 µM,–,> 100 µM,> 100 µM,> 100 µM,> 100 µM,> 100 µM,> 100 µM,> 100 µM,3.39 µM,5.5 µM,–,5.05 µM,5.32 µM,2.4 µM,2.93 µM,12.3 µM,0.468 µM,3.05 µM
O=C1C2Cc3c(n(C(=O)c4ccccc4)c4ccccc34)CC2C(=O)N1c1ccc(Nc2ccc(N3C(=O)C4Cc5c(n(C(=O)c6ccccc6)c6ccccc56)CC4C3=O)cc2)cc1 (centres undefined),> 100 µM,> 100 µM,> 100 µM,> 100 µM,> 100 µM,> 100 µM,> 100 µM,> 100 µM,> 100 µM,> 100 µM,–,–,–,–,–,–,–,–,–,–
CC1=C[C@@H](C)C[C@]2(C)CC[C@H](O2)[C@]23CC[C@](CO)(C[C@H](O2)[C@@H]2O[C@@](C)(CC2=O)[C@@H](O)[C@H]2CC[C@@]4(CCC[C@@H](O4)[C@H](C)C(=O)O[C@H]4C[C@H]([C@]5(O)OCC[C@H](C)[C@@H]5O)O[C@H]4C=C1)O2)O3,0.00697 µM,0.0391 µM,0.0714 µM,0.159 µM,0.0561 µM,–,> 10 µM,–,> 10 µM,> 10 µM,–,–,–,–,–,–,–,–,–,–
COC(=O)c1cc(NC(=O)c2cc(NC(=O)Cc3c[nH]c4ccccc34)cn2C)cn1C,–,> 100 µM,> 100 µM,> 100 µM,–,83.5 µM,63.8 µM,85.7 µM,> 100 µM,–,–,–,–,–,–,–,–,–,–,–
CN(C)C(=O)OC1=CC2CCC(C1)N2C (centres undefined),> 100 µM,> 100 µM,> 100 µM,> 100 µM,> 100 µM,> 100 µM,> 100 µM,> 100 µM,> 100 µM,–,–,–,–,–,–,–,–,–,–,–
COc1ccc(-n2c3c(c4cc(O)ccc42)Cc2ccccc2C3=O)cc1,–,> 100 µM,> 100 µM,57 µM,> 100 µM,> 100 µM,> 100 µM,> 100 µM,> 100 µM,–,–,–,–,–,–,–,–,–,–,–
COc1ccc(-c2nn(-c3ccc(NC(=O)c4cc(Cl)cc(Cl)c4)cc3)cc2-c2ccncc2)cc1Cl,–,> 100 µM,> 100 µM,–,> 100 µM,> 100 µM,> 100 µM,> 100 µM,> 100 µM,> 100 µM,–,> 100 µM,6.18 µM,–,> 100 µM,> 100 µM,8.09 µM,> 100 µM,1.77 µM,> 100 µM
O=C(CC(c1ccccc1)C1C(=O)NC(=S)NC1=O)c1ccc([N+](=O)[O-])cc1 (centres undefined),> 100 µM,> 100 µM,> 100 µM,> 100 µM,> 100 µM,> 100 µM,> 100 µM,> 100 µM,> 100 µM,> 100 µM,–,–,–,–,–,–,–,–,–,–
O=C(/C=C1\N=C(c2ccccc2)N(c2nc3c(Cl)cc(Cl)cc3s2)C1=O)/C=C/c1ccccc1,> 100 µM,> 100 µM,> 100 µM,> 100 µM,> 100 µM,> 100 µM,> 100 µM,> 100 µM,> 100 µM,> 100 µM,–,–,–,–,–,–,–,–,–,–
COc1cc(C2c3cc4c(cc3[C@@H](Nc3ccc(Oc5ccccc5)cc3)C3COC(=O)[C@H]23)OCO4)cc(OC)c1O (some centres undefined),–,> 100 µM,–,> 52 µM,> 100 µM,6.68 µM,5.99 µM,> 100 µM,19.7 µM,13.8 µM,–,–,–,–,–,–,–,–,–,–
O=C(Nc1ccc(-n2ccc3c(NC(=O)c4ccccc4)nccc32)cc1)Nc1cccc(C(F)(F)F)c1,11.7 µM,21 µM,18.8 µM,–,30.9 µM,17.6 µM,20.7 µM,26.8 µM,6.55 µM,22.4 µM,2.59 µM,7.36 µM,3.87 µM,–,3.28 µM,7.46 µM,7.2 µM,11.1 µM,1.03 µM,10 µM
O=C1/C(=C/c2[nH]ncc2-c2ccc(Cl)cc2)C(=O)N(c2ccccc2)C1c1ccccc1 (centres undefined),76 µM,50.4 µM,> 100 µM,56.3 µM,45.1 µM,28.8 µM,27.5 µM,> 100 µM,36.9 µM,–,–,–,–,–,–,–,–,–,–,–
